Among the data in ChEMBL document CHEMBL3301361, “Experimental in vitro DMPK and physicochemical data on a set of publicly disclosed compounds” are microsomal CLint and logD values, retold here.

The nature of one data set: in vitro. To be noted: human.
Another data set can be described thus: physchem. To be noted: octan-1-ol/water.

The microsomal CLint is the rate of metabolic loss divided by the concentration. A high value points to faster metabolism. Consider `Cc1ccccc1CCOCCCS(=O)(=O)CCNCCc1ccc(O)c2nc(O)sc12`, for which the microsomal CLint in “in vitro” (liver microsomes) is more than 150 µL/min/mg. On to `CCCCc1nc2c(N)nc3ccccc3c2n1CC(C)(C)O`, for which the microsomal CLint in the data set “in vitro” (liver microsomes) is less than 3 µL/min/mg. The logD is lipophilicity at a set pH, counting ionised and neutral species. The low end stands for lower lipophilicity, the high end for higher lipophilicity. `CCc1nc2c(N)nc3ccccc3c2n1Cc1ccccc1` showed a logD in “physchem” (pH 7.4, LogD7.4) of 3.29. The molecule further returned a microsomal CLint in “in vitro” (liver microsomes) of less than 3 µL/min/mg. `NS(=O)(=O)c1ccc(Nc2nccc(-c3ccccc3)n2)cc1` gave a logD in “physchem” (pH 7.4, LogD7.4) of 2.86. In addition, in “in vitro” (liver microsomes), the microsomal CLint is less than 3 µL/min/mg. Regarding `CN1CCN(C(=O)c2cc3cc(Br)ccc3[nH]2)CC1`, in the data set “physchem” (pH 7.4, LogD7.4), the logD worked out at 2.79. For the same molecule, the microsomal CLint in “in vitro” (liver microsomes) is 20.5 µL/min/mg. As to `Cc1ccc(C(=O)Nc2ccon2)cc1NC(=O)c1cnn(-c2ccccc2F)c1N`, the logD in the data set “physchem” (pH 7.4, LogD7.4) stood at 2.6. Besides, the intrinsic clearance (microsomal CLint) in the data set “in vitro” (liver microsomes) is less than 3 µL/min/mg. On to `Nc1nc(-c2ccccn2)nc(N)c1Cc1ccc(Cl)cc1Cl`, for which, in the data set “in vitro” (liver microsomes), the microsomal CLint is 37.1 µL/min/mg. Molecule `Cc1ccc2c(c1)C1(CCN(CCc3nc(-c4ccccc4)oc3C)CC1)OC(=O)N2` had a logD in “physchem” (pH 7.4) of 4.2. The molecule further gave a microsomal CLint in the data set “in vitro” (liver microsomes) of 79.4 µL/min/mg. Take `CC(NCC(O)c1ccc([N+](=O)[O-])cc1)C12CC3CC(CC(C3)C1)C2` (centres undefined): in “physchem” (pH 7.4, LogD7.4), the logD is 3.53. In addition, the microsomal CLint in “in vitro” (liver microsomes) was 30.5 µL/min/mg. As to `O=C(O)COc1ccc(Cl)cc1CN1CCCN(S(=O)(=O)c2ccccc2)CC1`, the microsomal CLint in “in vitro” (microsomes) was less than 3 µL/min/mg. The same measure, in the same setting: then `C[C@@H]1CN(Cc2cc(Cl)ccc2OCC(=O)O)C[C@H](C)N1C(=O)Cc1ccccc1`, with less than 3 µL/min/mg. In the case of `C[C@H]1CN(Cc2cc(Cl)ccc2OCC(=O)O)CCN1C(=O)Cc1cccc(Cl)c1`, the logD in the data set “physchem” (pH 7.4) amounted to 0.78. Further, the intrinsic clearance (microsomal CLint) in “in vitro” (microsomes) was less than 3 µL/min/mg. Take `C[C@H]1CN(Cc2cc(Cl)ccc2CC(=O)O)CCN1S(=O)(=O)Cc1ccccc1`: the microsomal CLint in the data set “in vitro” (microsomes) is less than 3 µL/min/mg. The same measure, in the same setting: with `O=C(O)COc1ccc(C(F)(F)F)cc1-c1ccccc1-c1ccccc1` the figure was less than 3 µL/min/mg. `CCS(=O)(=O)c1ccc(-c2cc(C(F)(F)F)ccc2OCC(N)=O)c(C)c1` yielded a microsomal CLint in “in vitro” (liver microsomes) of less than 3 µL/min/mg. Regarding `C=CCN(C(=O)Cc1ccc(S(C)(=O)=O)cc1)C1CCN(CCC(c2ccccc2)c2ccccc2)CC1`, the logD in “physchem” (pH 7.4, LogD7.4) came out at 3.1. The microsomal CLint in “in vitro” (liver microsomes) was determined as 10 µL/min/mg. In the data set “in vitro” (liver microsomes), `CN(C(=O)Cc1ccc(S(N)(=O)=O)cc1)C1CCN(CCC(c2ccccc2)c2ccccc2)CC1` showed a microsomal CLint of 12 µL/min/mg. In “in vitro” (liver microsomes), `NC(=O)Nc1cc(-c2ccsc2)sc1C(N)=O` showed a microsomal CLint of 45 µL/min/mg.

As to `Cc1ccc(NC(=O)c2cccc(N3CCOCC3)c2)cc1NC(=O)c1ccc(OCc2ccccn2)cc1`, in “in vitro” (liver microsomes), the microsomal CLint was determined as 30.3 µL/min/mg.

`COc1ccc(C=NN=Cc2ccc(OC)c(OC)c2)cc1OC`: the logD in “physchem” (pH 7.4, LogD7.4) came to 3.38. This molecule displayed a microsomal CLint in “in vitro” (liver microsomes) of 19 µL/min/mg.

In turn, `Cc1c(Sc2ccc(Cl)cc2)c2cc(Cl)ccc2n1CC(=O)O` yielded a pH-dependent lipophilicity (logD) in “physchem” (pH 7.4, LogD7.4) of 2.87. For the same molecule, the microsomal CLint in “in vitro” (liver microsomes) was less than 3 µL/min/mg. In turn, `Cc1c(Sc2ccc(Cl)cc2)c2ccc(Cl)cc2n1CC(=O)O` returned an intrinsic metabolic clearance (microsomal CLint) in the data set “in vitro” (liver microsomes) of less than 3 µL/min/mg. Take `Cc1c(Sc2ccc(Cl)cc2)c2c(C#N)c(Cl)ccc2n1CC(=O)O`: in “in vitro” (liver microsomes), the microsomal CLint worked out at 4 µL/min/mg.

`CC(=O)Nc1ccc2c(c1)c(Sc1ccc(Cl)cc1)c(C)n2CC(=O)O` returned a microsomal CLint in the data set “in vitro” (liver microsomes) of 36 µL/min/mg. Still for that read-out and setting: with `Cc1c(Sc2ccc(Cl)cc2)c2cc(-c3ccccc3)ccc2n1CC(=O)O` the figure was 16 µL/min/mg. Consider `Cc1ccc2c(c1)c(Sc1ccccc1Cl)c(C)n2CC(=O)O`, for which, in “in vitro” (microsomes), the microsomal CLint is less than 3 µL/min/mg. In the data set “in vitro” (microsomes), `Cc1c(Oc2ccc(Cl)cc2)c2cc(F)ccc2n1CC(=O)O` yielded a microsomal CLint of less than 3 µL/min/mg. As for `CCS(=O)(=O)Nc1cccc2c1c(Oc1ccc(Cl)cc1)c(C)n2CC(=O)O`, in “in vitro” (microsomes), the microsomal CLint was less than 3 µL/min/mg.

On to `N#Cc1ccc(Nc2nccc(NC3CC3)n2)cc1`, for which the logD in “physchem” (pH 7.4, LogD7.4) came to 3.01. The microsomal CLint in “in vitro” (liver microsomes) came out at 45 µL/min/mg. The molecule `O=C(CCc1ccccc1O)Nc1ccccc1` returned a logD in the data set “physchem” (pH 7.4, LogD7.4) of 2.71. Besides, in the data set “in vitro” (liver microsomes), the microsomal CLint worked out at 30 µL/min/mg. `Nc1nc(Nc2cccc(Br)c2)c2[nH]cnc2n1` had a logD in the data set “physchem” (pH 7.4, LogD7.4) of 3.04. The molecule further had a microsomal CLint in “in vitro” (microsomes) of 16 µL/min/mg. Consider `Nc1nc(Nc2ccc(F)c(Cl)c2)c2nc[nH]c2n1`, for which the logD in “physchem” (pH 7.4, LogD7.4) came to 2.75. Moreover, in “in vitro” (liver microsomes), the intrinsic clearance (microsomal CLint) was found to be 15 µL/min/mg. Take `CCN(C(=O)Cc1ccc(S(C)(=O)=O)cc1)C1CCN(CCC(c2ccccc2)C2CCN(Cc3ccccc3)CC2)CC1` (centres undefined): the intrinsic clearance (microsomal CLint) in the data set “in vitro” (liver microsomes) was more than 150 µL/min/mg.

Turning to `CCN(C(=O)Cc1ccc(S(C)(=O)=O)cc1)C1CCN(CC[C@@H](c2cc(C)cc(C)c2)C2CCN(S(C)(=O)=O)CC2)CC1`, in the data set “in vitro” (liver microsomes), the microsomal CLint is more than 150 µL/min/mg. Molecule `COc1ccc(-c2ccnc(N)n2)cc1` registered a logD in the data set “physchem” (pH 7.4, LogD7.4) of 2.08. The molecule further gave a microsomal CLint in “in vitro” (liver microsomes) of 41 µL/min/mg. Molecule `Cc1ccc(C(=O)NC2CCC2)cc1-n1cnc2ccc(N3CCN(C)CC3)cc2c1=O` had a logD in the data set “physchem” (pH 7.4, LogD7.4) of 2.25. In the data set “in vitro” (liver microsomes), this molecule registered a microsomal CLint of 5 µL/min/mg. Turning to `Nc1c(C(=O)c2cccc(OC[C@H](O)CO)c2)cnn1-c1ccc(F)cc1`, the log distribution coefficient (logD) in the data set “physchem” (pH 7.4, LogD7.4) is 1.94. In the data set “in vitro” (microsomes), this molecule yielded a microsomal CLint of less than 3 µL/min/mg.
